Assay results published in patent US11834453B2, “Substituted pyrimido[5,4-d]pyrimidines as HER2 inhibitors” (Array BioPharma Inc., priority 2020, dated 2023).
Where two headings read alike, the source gives them in different places.

Tests used:
EGFR wild type (EGFR WT) = EGFR wild type (EGFR WT) (Homo sapiens (Human), UniProt P00533); experiment: Cellular phosphorylation assay, EGF-stimulated EGFR phosphorylation in engineered NIH 3T3 cells, Phospho-EGFR DuoSet IC ELISA, Assay 5; type: cell-based
Summary of the method: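 Phospho-EGFR ELISA on lysates of engineered NIH 3T3 EGFR WT cells, IC50 derived from concentration curves. Cells plated at 20,000/well overnight, given compound dilutions 1 h at 37 °C, then rEGF 100 ng/ml for a further 10 min before lysis.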

[1] = target: ErbB2 with Exon 20 YVMA insertion (HER2-YVMA) (Homo sapiens (Human), UniProt P04626, INS775YVMA); experiment: Cellular phosphorylation assay, constitutive ErbB2 phosphorylation (Y1196) in engineered NIH 3T3 cells, Assay 4; type: cell-based
ErbB2 with Exon 20 YVMA insertion (HER2-YVMA), sequence (P04626 other isoform, or with tags, fused parts or gaps ins YVMA behind 775): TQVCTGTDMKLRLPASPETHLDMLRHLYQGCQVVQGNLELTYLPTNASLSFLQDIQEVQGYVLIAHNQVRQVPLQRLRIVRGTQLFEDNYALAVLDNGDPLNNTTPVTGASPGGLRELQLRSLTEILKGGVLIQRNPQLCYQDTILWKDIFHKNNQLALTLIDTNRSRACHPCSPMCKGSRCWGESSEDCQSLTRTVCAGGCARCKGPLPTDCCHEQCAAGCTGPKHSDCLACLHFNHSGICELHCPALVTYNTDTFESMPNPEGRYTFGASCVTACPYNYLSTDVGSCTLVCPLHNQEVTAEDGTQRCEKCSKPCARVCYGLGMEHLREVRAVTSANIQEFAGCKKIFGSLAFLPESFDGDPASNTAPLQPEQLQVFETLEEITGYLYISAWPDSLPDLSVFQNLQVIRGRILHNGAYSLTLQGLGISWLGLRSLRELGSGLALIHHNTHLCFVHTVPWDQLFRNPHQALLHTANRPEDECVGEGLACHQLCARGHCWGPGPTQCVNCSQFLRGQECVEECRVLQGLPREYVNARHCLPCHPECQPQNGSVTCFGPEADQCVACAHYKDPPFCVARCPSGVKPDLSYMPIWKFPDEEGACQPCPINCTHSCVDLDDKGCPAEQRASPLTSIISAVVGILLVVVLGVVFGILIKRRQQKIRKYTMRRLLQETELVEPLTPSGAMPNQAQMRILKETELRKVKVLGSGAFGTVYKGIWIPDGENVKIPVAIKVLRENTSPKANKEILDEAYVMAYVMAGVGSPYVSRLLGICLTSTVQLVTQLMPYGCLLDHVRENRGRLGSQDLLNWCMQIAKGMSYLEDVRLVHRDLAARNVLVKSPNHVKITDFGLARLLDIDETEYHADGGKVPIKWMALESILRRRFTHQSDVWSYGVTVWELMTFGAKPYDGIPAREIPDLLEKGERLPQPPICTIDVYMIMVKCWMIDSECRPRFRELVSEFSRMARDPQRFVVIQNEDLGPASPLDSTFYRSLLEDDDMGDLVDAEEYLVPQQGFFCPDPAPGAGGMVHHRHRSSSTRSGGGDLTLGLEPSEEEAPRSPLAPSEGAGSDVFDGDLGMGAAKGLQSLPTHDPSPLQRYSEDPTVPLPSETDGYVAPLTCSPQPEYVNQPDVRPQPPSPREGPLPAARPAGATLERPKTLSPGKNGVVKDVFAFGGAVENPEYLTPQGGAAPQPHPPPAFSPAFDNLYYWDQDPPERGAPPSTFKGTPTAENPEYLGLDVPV
Summary of the method: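 In-cell Western in NIH 3T3 cells carrying ErbB2 exon 20 YVMA insertion, with no ligand stimulation. One hour compound exposure at 37 °C before fixation and anti-pY1196 plus GAPDH staining with dual-wavelength fluorescence. IC50 derived after GAPDH normalization.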

EGFR = EGFR (Homo sapiens (Human), UniProt P00533); experiment: ErbB enzyme assay (CisBio HTRF KinEASE-TK), Assay 3; type: biochemical
Summary of the method: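 HTRF dual-wavelength read after 1 h detection; POC normalised to DMSO (100) and pre-quenched (0) controls, IC50 where 4-parameter curve crosses 50 POC. Reaction: 250 nM TK-substrate biotin, 1 mM ATP, pH 7.4 HEPES buffer with MgCl2, 30 min, 22 °C.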

MDR1 (P-gp) = MDR1 (P-gp) (Homo sapiens (Human), UniProt P08183); experiment: MDR1 transfected MDCKII canine Mdr1 knockout permeability/efflux, Assay 7; settings: dog, MDCK-MDR1
MDR1 (P-gp), sequence (P08183 whole entry): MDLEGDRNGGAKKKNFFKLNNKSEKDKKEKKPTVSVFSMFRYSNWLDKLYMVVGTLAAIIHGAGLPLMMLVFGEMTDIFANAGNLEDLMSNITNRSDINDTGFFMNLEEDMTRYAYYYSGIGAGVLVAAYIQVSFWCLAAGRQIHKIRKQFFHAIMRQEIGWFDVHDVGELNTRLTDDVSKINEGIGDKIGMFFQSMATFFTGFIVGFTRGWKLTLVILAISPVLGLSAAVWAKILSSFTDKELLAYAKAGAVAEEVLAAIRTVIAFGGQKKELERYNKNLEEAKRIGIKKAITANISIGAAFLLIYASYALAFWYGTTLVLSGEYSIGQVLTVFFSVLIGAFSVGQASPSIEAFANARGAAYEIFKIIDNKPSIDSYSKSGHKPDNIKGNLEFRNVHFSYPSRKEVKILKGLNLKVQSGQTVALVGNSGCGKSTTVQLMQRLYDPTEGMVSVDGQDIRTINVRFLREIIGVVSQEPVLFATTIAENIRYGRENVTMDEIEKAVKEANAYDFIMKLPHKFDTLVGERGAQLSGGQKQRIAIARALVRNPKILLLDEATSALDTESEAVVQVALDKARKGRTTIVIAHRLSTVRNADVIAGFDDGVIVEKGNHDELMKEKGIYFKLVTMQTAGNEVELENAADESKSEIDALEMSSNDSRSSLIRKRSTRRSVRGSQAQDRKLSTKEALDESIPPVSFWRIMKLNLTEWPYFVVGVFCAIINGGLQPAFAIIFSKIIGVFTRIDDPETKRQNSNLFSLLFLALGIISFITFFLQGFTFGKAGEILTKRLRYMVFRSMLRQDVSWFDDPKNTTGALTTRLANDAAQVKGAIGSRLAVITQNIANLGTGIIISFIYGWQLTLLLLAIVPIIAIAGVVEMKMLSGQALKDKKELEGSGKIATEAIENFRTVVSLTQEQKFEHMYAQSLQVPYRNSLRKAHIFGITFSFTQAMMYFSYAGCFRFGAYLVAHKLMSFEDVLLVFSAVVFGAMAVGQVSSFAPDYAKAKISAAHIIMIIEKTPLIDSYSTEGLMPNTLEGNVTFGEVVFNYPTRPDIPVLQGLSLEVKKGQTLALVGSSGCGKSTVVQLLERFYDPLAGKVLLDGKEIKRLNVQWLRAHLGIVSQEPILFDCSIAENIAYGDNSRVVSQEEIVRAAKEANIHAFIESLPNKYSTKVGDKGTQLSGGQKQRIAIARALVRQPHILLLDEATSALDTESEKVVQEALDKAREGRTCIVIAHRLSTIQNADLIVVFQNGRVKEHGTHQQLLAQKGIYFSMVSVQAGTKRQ

ErbB2 WT = ErbB2 WT (Homo sapiens (Human), UniProt P04626); experiment: ErbB enzyme assay (CisBio HTRF KinEASE-TK), Assay 2; type: biochemical
ErbB2 WT, sequence (P04626 23-1255): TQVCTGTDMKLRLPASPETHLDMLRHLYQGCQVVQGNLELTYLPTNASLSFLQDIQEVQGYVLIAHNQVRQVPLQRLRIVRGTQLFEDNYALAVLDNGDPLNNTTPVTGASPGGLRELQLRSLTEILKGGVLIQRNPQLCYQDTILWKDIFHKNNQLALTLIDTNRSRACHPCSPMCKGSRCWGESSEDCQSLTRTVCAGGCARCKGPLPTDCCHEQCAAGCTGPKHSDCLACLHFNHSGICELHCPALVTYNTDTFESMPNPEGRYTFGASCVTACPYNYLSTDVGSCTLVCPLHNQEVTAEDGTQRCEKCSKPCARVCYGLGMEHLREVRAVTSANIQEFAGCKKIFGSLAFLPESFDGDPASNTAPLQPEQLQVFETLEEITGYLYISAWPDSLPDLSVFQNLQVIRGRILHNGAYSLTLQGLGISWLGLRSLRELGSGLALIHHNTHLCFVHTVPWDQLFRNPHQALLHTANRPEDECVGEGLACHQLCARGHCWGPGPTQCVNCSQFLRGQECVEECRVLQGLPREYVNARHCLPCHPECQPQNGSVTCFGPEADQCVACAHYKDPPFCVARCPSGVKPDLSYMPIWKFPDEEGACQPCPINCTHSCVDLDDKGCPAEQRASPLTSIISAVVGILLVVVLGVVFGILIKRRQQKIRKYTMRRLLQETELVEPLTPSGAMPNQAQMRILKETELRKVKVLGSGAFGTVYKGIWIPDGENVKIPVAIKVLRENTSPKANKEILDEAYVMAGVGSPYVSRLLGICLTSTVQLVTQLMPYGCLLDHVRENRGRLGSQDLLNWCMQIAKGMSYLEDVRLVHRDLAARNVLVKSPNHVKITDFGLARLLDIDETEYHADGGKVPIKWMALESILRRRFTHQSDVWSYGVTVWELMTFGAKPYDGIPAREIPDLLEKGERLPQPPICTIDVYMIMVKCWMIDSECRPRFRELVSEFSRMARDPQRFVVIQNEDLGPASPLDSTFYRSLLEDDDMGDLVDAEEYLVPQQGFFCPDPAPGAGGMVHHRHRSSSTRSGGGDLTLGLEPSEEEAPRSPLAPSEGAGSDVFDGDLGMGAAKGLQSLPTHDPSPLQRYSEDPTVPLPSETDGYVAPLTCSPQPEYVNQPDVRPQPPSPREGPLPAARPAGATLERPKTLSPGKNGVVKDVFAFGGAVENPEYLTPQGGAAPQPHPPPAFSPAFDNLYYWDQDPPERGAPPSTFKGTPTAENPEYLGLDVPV
Summary of the method: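 Readout is HTRF KinEASE-TK, using Sa-XL665 and cryptate antibody for 1 h at 22 °C, as percent of control between DMSO-only (100) and pre-quenched (0) reactions. The kinase reaction runs 30 min at 22 °C with 1 mM ATP and 250 nM biotinylated TK substrate, in HEPES pH 7.4 with MgCl2 and 2% DMSO.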

[2] = target: ErbB2 insYVMA (HER2-YVMA, SEQ ID NO: 2) (Homo sapiens, UniProt P04626, INS775YVMA/P1170A); experiment: biochemical; settings: ErbB2 insYVMA enzyme assay
ErbB2 insYVMA (HER2-YVMA, SEQ ID NO: 2), sequence (P04626 with tags, fused parts or gaps INS775YVMA/P1170A limits assumed): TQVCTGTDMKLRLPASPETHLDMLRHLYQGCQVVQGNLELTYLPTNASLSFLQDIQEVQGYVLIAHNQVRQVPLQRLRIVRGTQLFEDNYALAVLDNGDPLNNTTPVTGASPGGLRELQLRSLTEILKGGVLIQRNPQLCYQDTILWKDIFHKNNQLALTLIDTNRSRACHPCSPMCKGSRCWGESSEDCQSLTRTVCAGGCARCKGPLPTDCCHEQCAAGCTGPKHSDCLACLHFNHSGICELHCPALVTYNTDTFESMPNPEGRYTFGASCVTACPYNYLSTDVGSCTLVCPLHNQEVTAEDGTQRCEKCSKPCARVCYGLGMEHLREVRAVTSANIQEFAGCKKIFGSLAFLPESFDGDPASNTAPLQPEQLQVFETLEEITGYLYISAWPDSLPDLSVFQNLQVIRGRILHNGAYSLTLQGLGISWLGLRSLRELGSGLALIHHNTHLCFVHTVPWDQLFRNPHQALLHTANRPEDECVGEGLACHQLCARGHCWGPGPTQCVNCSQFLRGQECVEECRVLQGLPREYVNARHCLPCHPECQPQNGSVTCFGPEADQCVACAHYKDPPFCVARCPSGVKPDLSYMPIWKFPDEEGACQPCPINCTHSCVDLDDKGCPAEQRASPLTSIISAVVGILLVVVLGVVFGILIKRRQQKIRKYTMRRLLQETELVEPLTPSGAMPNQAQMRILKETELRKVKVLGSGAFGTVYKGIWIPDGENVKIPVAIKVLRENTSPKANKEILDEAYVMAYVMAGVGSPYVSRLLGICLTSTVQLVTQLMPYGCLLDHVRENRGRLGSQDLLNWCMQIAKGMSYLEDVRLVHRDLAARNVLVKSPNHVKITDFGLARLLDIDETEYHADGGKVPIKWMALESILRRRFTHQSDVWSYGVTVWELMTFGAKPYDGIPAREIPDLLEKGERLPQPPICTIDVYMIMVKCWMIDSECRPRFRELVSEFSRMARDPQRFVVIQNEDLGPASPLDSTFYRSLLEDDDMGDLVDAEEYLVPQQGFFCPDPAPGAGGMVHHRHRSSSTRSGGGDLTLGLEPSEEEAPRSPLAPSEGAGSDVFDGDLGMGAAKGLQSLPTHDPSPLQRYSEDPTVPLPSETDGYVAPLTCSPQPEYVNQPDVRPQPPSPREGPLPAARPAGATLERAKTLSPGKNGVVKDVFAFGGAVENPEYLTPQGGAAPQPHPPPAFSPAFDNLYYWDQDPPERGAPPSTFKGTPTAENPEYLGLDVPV

BCRP = BCRP (Homo sapiens (Human), UniProt Q9UNQ0); experiment: BCRP transfected MDCKII canine Mdr1 knockout permeability/efflux, Assay 9; settings: dog
[3] = Assay 9 Pe Ratio, efflux ratio Papp(B-A)/Papp(A-B), BCRP transfected MDCKII canine Mdr1 knockout

| Compound | IC50 (EGFR wild type (EGFR WT)) [nM] | IC50 [1] [nM] | IC50 (EGFR) [nM] | efflux ratio at 2 h, 1 μM (MDR1 (P-gp)) | IC50 (ErbB2 WT) [nM] | IC50 ([2]; read-out: Assay 1 IC50) [nM] | efflux ratio at 2 h, 1 μM (BCRP; [3]) | IC50 ([2]; Assay 1 IC50 (nM)) [nM] | efflux ratio at 2 h, 1 μM (BCRP) |
| --- | --- | --- | --- | --- | --- | --- | --- | --- | --- |
| COC[C@H](O)CN(C)c1ncc2ncnc(Nc3ccc(Oc4ccc5c(c4)ncn5C)c(C)c3)c2n1 (racemic) [Example 100, rac-(R)-1-methoxy-3-(methyl(8-((3-methyl-4-((1-methyl-1H-benzo[d]imidazol-5-yl)oxy)phenyl)amino)pyrimido[5,4-d]pyrimidin-2-yl)amino)propan-2-ol] | ≥ 5000 | 21.1 | 4150 | 1.5 | 31.8 | 28.8 | 18.2 | – | – |
| Cn1cnc2cc(Oc3ccc(Nc4ncnc5cnc(N6CCC67COC7)nc45)cc3Cl)ccc21.O=C(O)C(F)(F)F [Example 145, N-(3-chloro-4-((1-methyl-1H-benzo[d]imidazol-5-yl)oxy)phenyl)-6-(6-oxa-1-azaspiro[3.3]heptan-1-yl)pyrimido[5,4-d]pyrimidin-4-amine] | ≥ 5000 | 20.2 | 896 | 0.7 | 19.6 | – | – | 19.3 | 2.1 |
| Cc1cc(Nc2ncnc3cnc(N4C[C@@H](O)C(F)(F)C4)nc23)ccc1Oc1ccc2c(c1)ncn2C [Example 185, (R)-4,4-difluoro-1-(8-((3-methyl-4-((1-methyl-1H-benzo[d]imidazol-5-yl)oxy)phenyl)amino)pyrimido[5,4-d]pyrimidin-2-yl)pyrrolidin-3-ol] | ≥ 5000 | 25.2 | ≥ 10000 | 2 | 12.1 | 24.3 | 31.7 | – | – |
| Cc1cc(Nc2ncnc3cnc(N4CC[C@@](C)(O)C4)nc23)ccc1Oc1ccc2c(c1)ncn2C [Example 154, (R)-3-methyl-1-(8-((3-methyl-4-((1-methyl-1H-benzo[d]imidazol-5-yl)oxy)phenyl)amino)pyrimido[5,4-d]pyrimidin-2-yl)pyrrolidin-3-ol] | ≥ 5000 | 15.7 | 1940 | 2.1 | 8 | 10.3 | 34 | – | – |
| Cc1cc(Nc2ncnc3cnc(N4CCC[C@@](C)(O)C4)nc23)ccc1Oc1ccc2c(c1)ncn2C [Example 196, (R)-3-methyl-1-(8-((3-methyl-4-((1-methyl-1H-benzo[d]imidazol-5-yl)oxy)phenyl)amino)pyrimido[5,4-d]pyrimidin-2-yl)piperidin-3-ol] | ≥ 5000 | 8.7 | 883 | 1.6 | 9.1 | 8.2 | 13.2 | – | – |
| Cn1cnc2cc(Oc3ccc(Nc4ncnc5cnc(N6CCC7COCC76)nc45)cc3Cl)ccc21 (centres unmarked) [Example 114, N-(3-chloro-4-((1-methyl-1H-benzo[d]imidazol-5-yl)oxy)phenyl)-6-(hexahydro-1H-furo[3,4-b]pyrrol-1-yl)pyrimido[5,4-d]pyrimidin-4-amine] | ≥ 5000 | 20.1 | 7890 | 1.5 | 96.3 | 50.1 | 1.2 | – | – |
| Cc1cc(Nc2ncnc3cnc(N(C)[C@H]4C[C@@H](O)C4)nc23)ccc1Oc1ccc2c(c1)ncn2C [Example 183] | ≥ 5000 | 5.1 | 1050 | 1.7 | 5.8 | 4.4 | 19.5 | – | – |
| Cc1cc(Nc2ncnc3cnc(N(C)[C@H]4C[C@H](O)C4)nc23)ccc1Oc1ccc2c(c1)ncn2C [Example 186, (1r,3r)-3-(methyl(8-((3-methyl-4-((1-methyl-1H-benzo[d]imidazol-5-yl)oxy)phenyl)amino)pyrimido[5,4-d]pyrimidin-2-yl)amino)cyclobutan-1-ol] | ≥ 5000 | 4.1 | 592 | 1.4 | 3.7 | 5.7 | 24.2 | – | – |
